The test system of assay [1] is PD-1 positive (transduced) KG-1 cells. Briefly: IFN gamma secretion assay in PD-1 transduced KG-1 cells (Example 11). In kind it is cell-based, human. The following applies: IFNγ secretion, PD-1 transduced KG-1 cells, 20-24 h. The method, then:
(§1) The KG-1 cell line was used to generate a PD-1 expressing cell line and furthermore, to measure IFNγ release upon incubation with TL-18 variants and corresponding TL-18 immunocytokines.
PD-1 expressing cell line generation: Briefly, KG-1 cells were transduced using lentiviral particles carrying the human PD-1 gene (PDCD1 NM_005018; Origene, CAT #: RC210364L3V) at a MOI (Multiplicity of Infection) of 30. Spinfection was performed at 1260 g during 90 min at 37° C. in the presence of 5 μg/ml of Polybrene and 10 mM of HEPES in complete culture media (RPMI, 10% FBS, 1% L-Glutamine). Five days after transduction, puromycin at a final concentration of 1 μg/ml was added to select for PD-1 positive cells. For culture maintenance, puromycin concentration was decreased to 0.5 μg/ml. Stable and homogenous expression of PD-1 was verified by surface staining (BD Pharmingen, #557860).
(§2) IFNγ release was assessed in PD-1 positive (transduced) KG-1 cells, as well as in the parental PD-1 negative cells. 0.5×10^5 cells were seeded into a 96-well U-bottom plate in culture media (RPMI, 10% FBS, […]) and stimulated with IL-18 variants/ICs for 20-24 h. The test items were diluted to 100 nM in culture medium, followed by 7 10-fold serial dilutions. The lowest concentration assessed was […]. After incubation, IFNγ release was measured using the LEGENDplex custom human mix and match KIT (Biolegend LEGENDplex™ Human IFN-γ Capture Bead B5, 13×#740942, LEGENDplex™ P 1 Essential Immune Response Panel Detection Abs, #740931, LEGENDplex™ Buffer Set A #740368). To this end, cell culture supernatant was collected and diluted 1:1 with Assay Buffer. Fluorescence measurements were done with a Quanteon Flow Cytometer from Acea Biosciences. For analysis, MFI values (median fluorescence intensity) were exported and plotted against concentrations used. The EC50 values (half maximal effective concentration) were calculated based on a variable slope and four parameter analysis using GraphPad PRISM software version 9.

Assay [2] relates to parental PD-1 negative KG-1 cells. Nature of the assay: IFN gamma secretion assay in parental PD-1 negative KG-1 cells (Example 11). In kind it is cell-based, human. The note with it: IFNγ secretion, 20-24 h. The procedure: as §1, §2

Broadly, the EC50 is the midpoint of the concentration-response curve. For “Composition B: immunocytokine: Atezolizumab/Tecentriq (anti-PD-L1) conjugated to IL-18 polypeptide SEQ ID NO: 30”, the EC50 in assay [1] was found to be 3.6 pM; in assay [2] it was 1.6 pM.
